{"source": "patent US12594276B2", "about": "“Inhibitors of human immunodeficiency virus replication” (ViiV Healthcare UK (No.5) Limited, priority 2024, dated 2026)", "key": {"[1]": {"experiment": "Compound cytotoxicity, XTT-based colorimetric assay", "type": "cell-based", "conditions": "human; uninfected MT2 cells, day 4, XTT; read-out: CC50", "in_short": "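Uninfected MT2 cells, antiviral-assay protocol without virus; XTT colorimetric readout day 4; CC50 reported.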"}, "[2]": {"tested_on": "recombinant NL4-3 virus (nef section replaced with Renilla luciferase gene) in MT-2 cells", "experiment": "HIV cell culture assay (antiviral activity, luciferase readout)", "type": "cell-based", "conditions": "Renilla, NL43, MT-2 cells infected for 4-5 days with recombinant NL4-3 Renilla luciferase virus", "in_short": "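EC50 was derived by median-effect fitting of Renilla luciferase signal from MT-2 cells. These cells were infected for 4–5 days with NL4-3 reporter virus (nef partly replaced by luciferase; made in 293T cells) in the presence of serially diluted compound. Activity was quantified with a live-cell luciferase substrate.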"}}}
{"compound": "Cc1cc(C2CCC(F)(F)CC2)nc2nc([C@H](Cc3cc(F)cc(F)c3)NC(=O)Cn3nc(C(F)F)c4c3C(F)(F)[C@@H]3C[C@H]43)n(-c3ccc(Cl)c4c(NS(C)(=O)=O)nn(CCOC(C)C)c34)c(=O)c12", "note": "(atropisomer, axis not shown; (P)) [Example 59, N-[(1S)-1-[(3P)-3-{4-chloro-3-methanesulfonamido-1-[2-(propan-2-yloxy)ethyl]-1H-indazol-7-yl}-7-(4,4-difluorocyclohexyl)-5-methyl-4-oxo-3H,4H-pyrido[2,3-d]pyrimidin-2-yl]-2-(3,5-difluorophenyl)ethyl]-2-[(2S,4R)-9-(difluoromethyl)-5,5-difluoro-7,8-diazatricyclo[4.3.0.0^2,^4]nona-1(6),8-dien-7-yl]acetamide]", "values": [{"measurement": "CC50 at 4 days", "setting": "[1]", "value": "> 50", "unit": "nM"}, {"measurement": "EC50", "setting": "[2]", "value": 0.011, "unit": "nM"}]}
{"compound": "CO[C@H](C)Cn1nc(NS(C)(=O)=O)c2c(Cl)ccc(-n3c([C@H](Cc4cc(F)cc(F)c4)NC(=O)Cn4nc(C(F)F)c5c4C(F)(F)[C@@H]4C[C@H]54)nc4nc(C5CCC(F)(F)CC5)cc(C)c4c3=O)c21", "note": "(atropisomer, axis not shown; (P)) [Example 77, N-[(1S)-1-[(3P)-3-{4-chloro-3-methanesulfonamido-1-[(2R)-2-methoxypropyl]-1H-indazol-7-yl}-7-(4,4-difluorocyclohexyl)-5-methyl-4-oxo-3H,4H-pyrido[2,3-d]pyrimidin-2-yl]-2-(3,5-difluorophenyl)ethyl]-2-[(2S,4R)-9-(difluoromethyl)-5,5-difluoro-7,8-diazatricyclo[4.3.0.0^2,^4]nona-1(6),8-dien-7-yl]acetamide]", "values": [{"measurement": "CC50 at 4 days", "setting": "[1]", "value": "> 50", "unit": "nM"}, {"measurement": "EC50", "setting": "[2]", "value": 0.018, "unit": "nM"}]}
{"compound": "COCCCn1nc(NS(C)(=O)=O)c2c(Cl)ccc(-n3c([C@H](Cc4cc(F)cc(F)c4)NC(=O)Cn4nc(C(F)F)c5c4C(F)(F)[C@@H]4C[C@H]54)nc4nc(C5CCC(F)(F)CC5)cc(NCCN5CCN(C(C)=O)CC5)c4c3=O)c21", "note": "(atropisomer, axis not shown; (P)) [Example 536, N-[(1S)-1-[(3P)-5-{[2-(4-acetylpiperazin-1-yl)ethyl]amino}-3-[4-chloro-3-methanesulfonamido-1-(3-methoxypropyl)-1H-indazol-7-yl]-7-(4,4-difluorocyclohexyl)-4-oxo-3H,4H-pyrido[2,3-d]pyrimidin-2-yl]-2-(3,5-difluorophenyl)ethyl]-2-[(2S,4R)-9-(difluoromethyl)-5,5-difluoro-7,8-diazatricyclo[4.3.0.0^2,^4]nona-1(6),8-dien-7-yl]acetamide]", "values": [{"measurement": "CC50 at 4 days", "setting": "[1]", "value": "> 20", "unit": "nM"}, {"measurement": "EC50", "setting": "[2]", "value": 0.025, "unit": "nM"}]}
{"compound": "CS(=O)(=O)Nc1nn(CCN2CCC(F)(F)CC2)c2c(-n3c([C@H](Cc4cc(F)cc(F)c4)NC(=O)Cn4nc(C(F)F)c5c4C(F)(F)[C@@H]4C[C@H]54)nc4nc(C5CCC(F)(F)CC5)cc(C5CC5)c4c3=O)ccc(Cl)c12", "note": "(atropisomer, axis not shown; (P)) [Example 321, N-[(1S)-1-[(3P)-3-{4-chloro-1-[2-(4,4-difluoropiperidin-1-yl)ethyl]-3-methanesulfonamido-1H-indazol-7-yl}-5-cyclopropyl-7-(4,4-difluorocyclohexyl)-4-oxo-3H,4H-pyrido[2,3-d]pyrimidin-2-yl]-2-(3,5-difluorophenyl)ethyl]-2-[(2S,4R)-9-(difluoromethyl)-5,5-difluoro-7,8-diazatricyclo[4.3.0.0^2,^4]nona-1(6),8-dien-7-yl]acetamide]", "values": [{"measurement": "CC50 at 4 days", "setting": "[1]", "value": "> 50", "unit": "nM"}, {"measurement": "EC50", "setting": "[2]", "value": 0.02, "unit": "nM"}]}
{"compound": "CS(=O)(=O)Nc1nn(CCN2CCC(F)(F)CC2)c2c(-n3c([C@H](Cc4cc(F)cc(F)c4)NC(=O)Cn4nc(C(F)F)c5c4C(F)(F)[C@@H]4C[C@H]54)nc4nc(C5CCC(F)(F)CC5)ccc4c3=O)ccc(Cl)c12", "note": "(atropisomer, axis not shown; (P)) [Example 130, N-[(1S)-1-[(3P)-3-{4-chloro-1-[2-(4,4-difluoropiperidin-1-yl)ethyl]-3-methanesulfonamido-1H-indazol-7-yl}-7-(4,4-difluorocyclohexyl)-4-oxo-3H,4H-pyrido[2,3-d]pyrimidin-2-yl]-2-(3,5-difluorophenyl)ethyl]-2-[(2S,4R)-9-(difluoromethyl)-5,5-difluoro-7,8-diazatricyclo[4.3.0.0^2,^4]nona-1(6),8-dien-7-yl]acetamide]", "values": [{"measurement": "CC50 at 4 days", "setting": "[1]", "value": "> 50", "unit": "nM"}, {"measurement": "EC50", "setting": "[2]", "value": 0.013, "unit": "nM"}]}
{"compound": "Cc1cc(C2CCC(F)(F)CC2)nc2nc([C@H](Cc3cc(F)cc(F)c3)NC(=O)Cn3nc(C4CC4)c4c3C[C@@H]3C[C@H]43)n(-c3ccc(Cl)c4c(NS(C)(=O)=O)nn(CCN5CC(F)(F)C5)c34)c(=O)c12", "note": "(atropisomer, axis not shown; (P)) [Example 283, N-[(1S)-1-[(3P)-3-{4-chloro-1-[2-(3,3-difluoroazetidin-1-yl)ethyl]-3-methanesulfonamido-1H-indazol-7-yl}-7-(4,4-difluorocyclohexyl)-5-methyl-4-oxo-3H,4H-pyrido[2,3-d]pyrimidin-2-yl]-2-(3,5-difluorophenyl)ethyl]-2-[(2S,4S)-9-cyclopropyl-7,8-diazatricyclo[4.3.0.0^2,^4]nona-1(6),8-dien-7-yl]acetamide]", "values": [{"measurement": "CC50 at 4 days", "setting": "[1]", "value": "> 50", "unit": "nM"}, {"measurement": "EC50", "setting": "[2]", "value": 0.008, "unit": "nM"}]}
{"compound": "Cc1cc(C2CCC(F)(F)CC2)nc2nc([C@H](Cc3cc(F)cc(F)c3)NC(=O)Cn3nc(C(F)F)c4c3C(F)(F)[C@@H]3C[C@H]43)n(-c3ccc(Cl)c4c(NS(C)(=O)=O)nn(CCN5CCCC5)c34)c(=O)c12", "note": "(atropisomer, axis not shown; (P)) [Example 266, N-[(1S)-1-[(3P)-3-{4-chloro-3-methanesulfonamido-1-[2-(pyrrolidin-1-yl)ethyl]-1H-indazol-7-yl}-7-(4,4-difluorocyclohexyl)-5-methyl-4-oxo-3H,4H-pyrido[2,3-d]pyrimidin-2-yl]-2-(3,5-difluorophenyl)ethyl]-2-[(2S,4R)-9-(difluoromethyl)-5,5-difluoro-7,8-diazatricyclo[4.3.0.0^2,^4]nona-1(6),8-dien-7-yl]acetamide]", "values": [{"measurement": "CC50 at 4 days", "setting": "[1]", "value": "> 50", "unit": "nM"}, {"measurement": "EC50", "setting": "[2]", "value": 0.034, "unit": "nM"}]}
{"compound": "Cc1cc(C2CCC(F)(F)CC2)nc2nc([C@H](Cc3cc(F)cc(F)c3)NC(=O)Cn3nc(C(F)F)c4c3C(F)(F)[C@@H]3C[C@H]43)n(-c3ccc(Cl)c4c(NS(C)(=O)=O)nn(CC(=O)N(C)[C@@H]5CCOC5)c34)c(=O)c12", "note": "(atropisomer, axis not shown; (P)) [Example 405, N-[(1S)-1-[(3P)-3-[4-chloro-3-methanesulfonamido-1-({methyl[(3R)-oxolan-3-yl]carbamoyl}methyl)-1H-indazol-7-yl]-7-(4,4-difluorocyclohexyl)-5-methyl-4-oxo-3H,4H-pyrido[2,3-d]pyrimidin-2-yl]-2-(3,5-difluorophenyl)ethyl]-2-[(2S,4R)-9-(difluoromethyl)-5,5-difluoro-7,8-diazatricyclo[4.3.0.0^2,^4]nona-1(6),8-dien-7-yl]acetamide]", "values": [{"measurement": "CC50 at 4 days", "setting": "[1]", "value": "> 20", "unit": "nM"}, {"measurement": "EC50", "setting": "[2]", "value": 0.034, "unit": "nM"}]}
{"compound": "Cc1cc(C2CCC(F)(F)CC2)nc2nc([C@H](Cc3cc(F)cc(F)c3)NC(=O)Cn3nc(C(F)F)c4c3C(F)(F)[C@@H]3C[C@H]43)n(-c3ccc(Cl)c4c(NS(C)(=O)=O)nn(CCN5CC(C)(C)OC(C)(C)C5)c34)c(=O)c12", "note": "(atropisomer, axis not shown; (P)) [Example 17, N-[(1S)-1-[(3P)-3-{4-chloro-3-methanesulfonamido-1-[2-(2,2,6,6-tetramethylmorpholin-4-yl)ethyl]-1H-indazol-7-yl}-7-(4,4-difluorocyclohexyl)-5-methyl-4-oxo-3H,4H-pyrido[2,3-d]pyrimidin-2-yl]-2-(3,5-difluorophenyl)ethyl]-2-[(2S,4R)-9-(difluoromethyl)-5,5-difluoro-7,8-diazatricyclo[4.3.0.0^2,^4]nona-1(6),8-dien-7-yl]acetamide]", "values": [{"measurement": "CC50 at 4 days", "setting": "[1]", "value": "> 50", "unit": "nM"}, {"measurement": "EC50", "setting": "[2]", "value": 0.012, "unit": "nM"}]}
{"compound": "COCCCn1nc(NS(C)(=O)=O)c2c(Cl)ccc(-n3c([C@H](Cc4cc(F)cc(F)c4)NC(=O)Cn4nc(C(F)F)c5c4C(F)(F)[C@@H]4C[C@H]54)nc4nc(C5(F)CCC(F)(F)CC5)cc(CN5C[C@@H](C)O[C@@H](C)C5)c4c3=O)c21", "note": "(atropisomer, axis not shown; (P)) [Example 600, N-[(1S)-1-[(3P)-3-[4-chloro-3-methanesulfonamido-1-(3-methoxypropyl)-1H-indazol-7-yl]-5-{[(2R,6S)-2,6-dimethylmorpholin-4-yl]methyl}-4-oxo-7-(1,4,4-trifluorocyclohexyl)-3H,4H-pyrido[2,3-d]pyrimidin-2-yl]-2-(3,5-difluorophenyl)ethyl]-2-[(2S,4R)-9-(difluoromethyl)-5,5-difluoro-7,8-diazatricyclo[4.3.0.0^2,^4]nona-1(6),8-dien-7-yl]acetamide]", "values": [{"measurement": "CC50 at 4 days", "setting": "[1]", "value": "> 20", "unit": "nM"}, {"measurement": "EC50", "setting": "[2]", "value": 0.008, "unit": "nM"}]}
{"compound": "CS(=O)(=O)Nc1nn(CCN2CCC(F)(F)C2)c2c(-n3c([C@H](Cc4cc(F)cc(F)c4)NC(=O)Cn4nc(C(F)F)c5c4C(F)(F)[C@@H]4C[C@H]54)nc4nc(C5CCC(F)(F)CC5)cc(C5CC5)c4c3=O)ccc(Cl)c12", "note": "(atropisomer, axis not shown; (P)) [Example 354, N-[(1S)-1-[(3P)-3-{4-chloro-1-[2-(3,3-difluoropyrrolidin-1-yl)ethyl]-3-methanesulfonamido-1H-indazol-7-yl}-5-cyclopropyl-7-(4,4-difluorocyclohexyl)-4-oxo-3H,4H-pyrido[2,3-d]pyrimidin-2-yl]-2-(3,5-difluorophenyl)ethyl]-2-[(2S,4R)-9-(difluoromethyl)-5,5-difluoro-7,8-diazatricyclo[4.3.0.0^2,^4]nona-1(6),8-dien-7-yl]acetamide]", "values": [{"measurement": "CC50 at 4 days", "setting": "[1]", "value": "> 50", "unit": "nM"}, {"measurement": "EC50", "setting": "[2]", "value": 0.022, "unit": "nM"}]}
